Columns and labels:
PC-3 (Prostate Cancer) = assay: NCI one dose, PC-3; type: cell-based, human; conditions: PC-3, 1.00E-5 Molar one dose
Method: (§1) 3.4. Cell Proliferation Assay
(§2) Selected compounds were tested on a panel of 60 human cancer cell lines at the National Cancer Institute (NCI), Germantown, MD, USA. The cytotoxicity studies were conducted using a 48 h exposure protocol using the sulfo-rhodamine B assay.

OVCAR-3 (Ovarian Cancer) = assay: NCI one dose, OVCAR-3; type: cell-based, human; conditions: OVCAR-3, 1.00E-5 Molar one dose
Method: as §1, §2

M14 (Melanoma) = assay: NCI one dose, M14; type: cell-based, human; conditions: M14, 1.00E-5 Molar one dose
Method: as §1, §2

DU-145 (Prostate Cancer) = assay: NCI one dose, DU-145; type: cell-based, human; conditions: DU-145, 1.00E-5 Molar one dose
Method: as §1, §2

UO-31 renal cancer cells = assay: NCI one dose, UO-31; type: cell-based, human; conditions: UO-31, 1.00E-5 Molar one dose
Method: as §1, §2

[1] = molecular target: human farnesyltransferase (FTase) (Homo sapiens, UniProt P49354+P49356); assay: FTase inhibitory assay (fluorescence, Dansyl-GCVLS); type: biochemical; conditions: for % FTI: inhibition of human FTase at 100 μM of tested compound, mean of two experiments
Method: With 40 new products in hand, the determination of their inhibitory activity on human farnesyl-transferase (FTase) in vitro was first undertaken. Dimethyl sulfoxide (DMSO) was used as the negative control, and Chaetomellic acid A was the positive reference in all assays. At the outset, and in order to select only significant results, products with an inhibitory power greater than 60% at an initial screening concentration of 100 µM were retained for the determination of their IC50 and, therefore, for further discussion. Moreover, given the number of products tested, they are grouped into three subfamilies on the basis of the degree of the sulphur atom oxidation (series of sulfides, series of sulfoxides, and series of sulfones), and the results obtained are grouped in Table 1, Table 2 and Table 3.
3.3. FTase Inhibitory Assay
Assays were realized in 96-well plates, prepared with a Biomek NKMC and a Biomek 3000 from Beckman Coulter, and read on a Wallac Victor fluorimeter from PerkinElmer. Per well, 20 µL of farnesyl pyrophosphate (10 μM) was added to 180 µL of a solution containing 2 µL of varied concentrations of potential inhibitors (dissolved in DMSO) and 178 μL of a solution composed of 10 μL of partially purified recombinant human FTase (15 µg mL^−1) and 1.0 µL of Dansyl-GCVLS peptide (in the following buffer: 5.6 mM DTT, 5.6 mM MgCl2, 12 μM ZnCl2 and 0.2% (w/v) octyl-β-D-glucopyranoside, 52 mM Tris/HCl, pH 7.5). Fluorescence was recorded for 15 min (0.7 s per well, 20 repeats) at 30 °C with an excitation filter at 340 nm and an emission filter of 486 nm. Each measurement was reproduced twice, in duplicate. The kinetic experiments were realized under the same conditions, either with FPP as varied substrate with a constant concentration of Dns-GCVLS of 2.5 μM or with Dns-GCVLS as varied substrate with a constant concentration of FPP of 10 μM. Non-linear regressions were performed using the Excel software.

ACHN (Renal Cancer) = assay: NCI one dose, ACHN; type: cell-based, human; conditions: 1.00E-5 Molar one dose
Method: as §1, §2

786-0 (Renal Cancer) = assay: NCI one dose, 786-0; type: cell-based, human; conditions: 786-0, 1.00E-5 Molar one dose
Method: as §1, §2

MALME-3M (Melanoma) = assay: NCI one dose, MALME-3M; type: cell-based, human; conditions: 1.00E-5 Molar one dose
Method: as §1, §2

CCRF-CEM (Leukemia) = assay: NCI one dose, CCRF-CEM; type: cell-based, human; conditions: 1.00E-5 Molar one dose
Method: as §1, §2

COLO 205 (Colon Cancer) = assay: NCI one dose, COLO 205; type: cell-based, human; conditions: COLO 205, 1.00E-5 Molar one dose
Method: as §1, §2

SK-MEL-28 (Melanoma) = assay: NCI one dose, SK-MEL-28; type: cell-based, human; conditions: SK-MEL-28, 1.00E-5 Molar one dose
Method: as §1, §2

HT29 (Colon Cancer) = assay: NCI one dose, HT29; type: cell-based, human; conditions: HT29, 1.00E-5 Molar one dose
Method: as §1, §2

KM12 (Colon Cancer) = assay: NCI one dose, KM12; type: cell-based, human; conditions: KM12, 1.00E-5 Molar one dose
Method: as §1, §2

HCT-116 (Colon Cancer) = assay: NCI one dose, HCT-116; type: cell-based, human; conditions: HCT-116, 1.00E-5 Molar one dose
Method: as §1, §2

[2] = system: NCI-H23 (Non-Small Cell Lung Cancer); assay: NCI one dose, NCI-H23; type: cell-based, human; conditions: NCI-H23, 1.00E-5 Molar one dose
Method: as §1, §2

[3] = system: HOP-92 (Non-Small Cell Lung Cancer); assay: NCI one dose, HOP-92; type: cell-based, human; conditions: HOP-92, 1.00E-5 Molar one dose
Method: as §1, §2

RPMI-8226 (Leukemia) = assay: NCI one dose, RPMI-8226; type: cell-based, human; conditions: RPMI-8226, 1.00E-5 Molar one dose
Method: as §1, §2

OVCAR-5 (Ovarian Cancer) = assay: NCI one dose, OVCAR-5; type: cell-based, human; conditions: OVCAR-5, 1.00E-5 Molar one dose
Method: as §1, §2

SW-620 (Colon Cancer) = assay: NCI one dose, SW-620; type: cell-based, human; conditions: SW-620, 1.00E-5 Molar one dose
Method: as §1, §2

A498 (Renal Cancer) = assay: NCI one dose, A498; type: cell-based, human; conditions: A498, 1.00E-5 Molar one dose
Method: as §1, §2

[4] = system: NCI/ADR-RES (Ovarian Cancer); assay: NCI one dose, NCI/ADR-RES; type: cell-based, human; conditions: 1.00E-5 Molar one dose
Method: as §1, §2

[5] = system: A549/ATCC (Non-Small Cell Lung Cancer); assay: NCI one dose, A549/ATCC; type: cell-based, human; conditions: 1.00E-5 Molar one dose
Method: as §1, §2

SK-MEL-2 (Melanoma) = assay: NCI one dose, SK-MEL-2; type: cell-based, human; conditions: SK-MEL-2, 1.00E-5 Molar one dose
Method: as §1, §2

HCC-2998 (Colon Cancer) = assay: NCI one dose, HCC-2998; type: cell-based, human; conditions: HCC-2998, 1.00E-5 Molar one dose
Method: as §1, §2

SN12C (Renal Cancer) = assay: NCI one dose, SN12C; type: cell-based, human; conditions: 1.00E-5 Molar one dose
Method: as §1, §2

K-562 leukaemia cells = assay: NCI one dose, K-562; type: cell-based, human; conditions: K-562, 1.00E-5 Molar one dose
Method: as §1, §2

IGROV1 (Ovarian Cancer) = assay: NCI one dose, IGROV1; type: cell-based, human; conditions: IGROV1, 1.00E-5 Molar one dose
Method: as §1, §2

| SMILES | Growth Percent (PC-3 (Prostate Cancer)) | Growth Percent (OVCAR-3 (Ovarian Cancer)) | Growth Percent (M14 (Melanoma)) | Growth Percent (DU-145 (Prostate Cancer)) | Growth Percent (UO-31 renal cancer cells) | % FTI [1] | Growth Percent (ACHN (Renal Cancer)) | Growth Percent (786-0 (Renal Cancer)) | Growth Percent (MALME-3M (Melanoma)) | Growth Percent (CCRF-CEM (Leukemia)) | Growth Percent (SK-MEL-28 (Melanoma)) | Growth Percent (HT29 (Colon Cancer)) | Growth Percent (KM12 (Colon Cancer)) | Growth Percent (HCT-116 (Colon Cancer)) | Growth Percent [2] | Growth Percent [3] | Growth Percent (RPMI-8226 (Leukemia)) | Growth Percent (OVCAR-5 (Ovarian Cancer)) | Growth Percent (SW-620 (Colon Cancer)) | Growth Percent (A498 (Renal Cancer)) | further results |
| --- | --- | --- | --- | --- | --- | --- | --- | --- | --- | --- | --- | --- | --- | --- | --- | --- | --- | --- | --- | --- | --- |
| COc1ccccc1CNC(=O)[C@@H]1CS[C@@]2(C)c3ccccc3C(=O)N12 [4bG] | 98.65% | 110.44% | 100.11% | 107.06% | 94.50% | 30% | 109.61% | 104.93% | 100.10% | 98.16% | 109.27% | 79.32% | 103.74% | 99.72% | 103.28% | 98.11% | 96.98% | 107.74% | 104.41% | 93.00% | Growth Percent (COLO 205 (Colon Cancer)): 105.75%; Growth Percent [4]: 102.18%; Growth Percent [5]: 78.33%; Growth Percent (SK-MEL-2 (Melanoma)): 98.59%; Growth Percent (HCC-2998 (Colon Cancer)): 108.79%; Growth Percent (SN12C (Renal Cancer)): 107.44%; Growth Percent (K-562 leukaemia cells): 85.09%; Growth Percent (IGROV1 (Ovarian Cancer)): 107.94% |
| COc1ccc(CNC(=O)[C@@H]2CS[C@H]3c4ccccc4C(=O)N23)cc1OC [4aI] | 88.12% | 116.00% | 107.33% | 107.46% | 94.41% | 62% | 105.56% | 106.53% | 102.18% | 94.08% | 110.57% | 80.71% | 107.09% | 98.84% | 92.75% | 93.36% | 99.43% | 102.57% | 102.54% | 89.23% | Growth Percent (COLO 205 (Colon Cancer)): 111.84%; Growth Percent [4]: 99.35%; Growth Percent [5]: 74.91%; Growth Percent (SK-MEL-2 (Melanoma)): 80.08%; Growth Percent (HCC-2998 (Colon Cancer)): 105.82%; Growth Percent (SN12C (Renal Cancer)): 100.89%; Growth Percent (K-562 leukaemia cells): 84.27%; Growth Percent (IGROV1 (Ovarian Cancer)): 109.87% |
| O=C(NCc1ccccc1C(F)(F)F)[C@@H]1CS[C@H]2c3ccccc3C(=O)N12 [4aC] | 85.22% | 106.48% | 95.62% | 107.34% | 74.84% | 62% | 99.65% | 86.33% | 108.73% | 93.25% | 99.12% | 91.65% | 102.90% | 87.63% | 105.15% | 77.56% | 87.69% | 83.18% | 104.34% | 98.14% | IC50 ([1]; human FTase in vitro): 594 nM; Growth Percent [4]: 99.79%; Growth Percent [5]: 90.42%; Growth Percent (SK-MEL-2 (Melanoma)): 99.87%; Growth Percent (HCC-2998 (Colon Cancer)): 111.38%; Growth Percent (SN12C (Renal Cancer)): 101.45%; Growth Percent (K-562 leukaemia cells): 94.12%; Growth Percent (IGROV1 (Ovarian Cancer)): 98.93% |
| O=C(NCc1ccc(Cl)cc1Cl)[C@@H]1CS[C@H]2c3ccccc3C(=O)N12 [4aH] | 81.35% | 107.79% | 99.48% | 109.93% | 83.58% | 52% | 99.60% | 89.83% | 107.73% | 92.66% | 103.04% | 96.30% | 99.99% | 83.47% | 99.59% | 75.56% | 80.68% | 104.58% | 105.59% | 101.60% | Growth Percent [4]: 92.00%; Growth Percent [5]: 97.39%; Growth Percent (SK-MEL-2 (Melanoma)): 99.61%; Growth Percent (HCC-2998 (Colon Cancer)): 102.84%; Growth Percent (SN12C (Renal Cancer)): 98.06%; Growth Percent (K-562 leukaemia cells): 91.56%; Growth Percent (IGROV1 (Ovarian Cancer)): 101.47% |
